# Experimental data published in patent US20190307754A1, “PDE9 INHIBITORS FOR TREATMENT OF PERIPHERAL DISEASES” (IMARA, INC., priority 2016, published 2019).
# Where “and” joins values, the source holds several entries; their conditions need not be identical. Identical values can stand only once.
# Experiments:
# conscious dogs = assay: Cardiovascular study in beagle dogs; format: in vivo, dog
# Description: The safety pharmacology assessment of Compound P3.1 included an in vitro hERG assay, neurofunctional and respiratory studies in rats, and a cardiovascular study in beagle dogs.
# In a cardiovascular study conducted in 4 dogs, treatments were performed by oral gavage according to a crossover design after allowing a minimum washout period of 48 hours. In conscious dogs, Compound P3.1 at doses of 10 and 25 mg/kg had no effect on arterial blood pressure, heart rate, body temperature, cardiac conduction times, ventricular repolarization duration, QT variability, or ST segment.
# [1] = Brain and plasma concentrations after single IV dose in rat; format: in vivo; details: for Mean Plasma/Brain Ratio / Concentration Brain / Concentration Plasma / Plasma/Brain Ratio: 3 mg/kg IV; for Concentration Brain / Concentration Plasma / Plasma/Brain Ratio: individual animals, 3 mg/kg
# Description: Blood samples were taken at 2 minutes (IV only), then 8, 15, 30 minutes, and 1, 2, 4, 8, and 24 hours after dosing and analyzed for key PK parameters. In the rats, brain samples were taken at 24 hours and analyzed for Compound P3.1. To evaluate the penetration of Compound P3.1 across the blood-brain barrier (BBB), 10 additional rats received IV Compound P3.1 3 mg/kg and plasma and brain concentrations of Compound P3.1 were determined from 2 animals at 15 minutes, 30 minutes and 1, 2, and 4 hours after dosing.
# [2] = Plasma protein binding, dog; format: in vitro ADME; details: read-out: mean plasma fraction bound (converted)
# CYP1A2 = assay: CYP induction in human hepatocytes, CYP1A2; format: in vitro ADME
# [3] = Metabolic stability (intrinsic clearance) in liver microsomes; format: in vitro ADME, mouse, rat, dog, monkey, and human
# in vivo = details: rat
# Description: (§1) In a 14-day repeat-dose toxicity study in rats, Compound P3.1 was orally administered (gavage) at doses of 0 (vehicle), 50, 200, and 400 mg/kg/day.
# rat = assay: in vivo
# Description: as §1
# [4] = Fourteen-day repeat-dose toxicity study in beagle dogs; format: in vivo, dog; details: beagle, in vivo, dog; for NOAEL at 14 days: both sexes, oral, males and females, 14-day; for Cmax / AUC(0-t): po; for AUC(0-t): read-out: AUC0-24
# Description: (§2) In a GLP 14-day repeat-dose toxicity study in dogs, Compound P3.1 was orally administered at doses of 0, 10, 35, or 75 mg/kg/day. […] The no-observed-adverse-effect level (NOAEL) was considered to be 35 mg/kg/day in males and females.
# dog = assay: as above; format: in vivo
# Description: as §2
# [5] = Bacterial reverse mutation assay; format: cell-based
# Text: The genotoxicity evaluation of Compound P3.1 consisted of a bacterial reverse mutation assay, a chromosome aberration study, and a in vivo rat micronucleus study. Compound P3.1 was negative in all 3 assays.
# [6] = tested on: TNF-α activated endothelium; assay: Micro-channel assay of platelet, PMN and RBC binding (FIG. 10); format: cell-based, human; details: bound cells at 30 min
# Description: In another assay, using the same method, the reduction of PMN and RBC bindings to TNF-α activated endothelium in a micro channel well was confirmed. Platelet, PMN, and RBC in blood samples from 5 healthy normal volunteers (donors) were labelled with fluorescent dyes. The blood samples were incubated with Compound P3.1 for 2 hours or 3 hours, or HU for 3 hours, prior to running them on micro channels that were previously coated with endothelial cells activated with TNF-α. The % of bound cells was quantified at 30 min. Results are shown in FIG. 10A, FIG. 10B, and FIG. 10C.
# [7] = tested on: CD34+ derived red blood cells from SCD subjects; details: 10 μM Compound P3.1, 5 days
# [8] = female, 10 mg, females, 10 mg, Day 1
# [9] = female, 10 mg, females, 10 mg, Day 14
# [10] = female, 35 mg, females, 35 mg, Day 1
# [11] = female, 35 mg, females, 35 mg, Day 14
# [12] = female, 75 mg/kg/day, females, 75 mg, Day 1
# [13] = female, 75 mg/kg/day, females, 75 mg, Day 14
# [14] = male, 10 mg, males, 10 mg, Day 1
# [15] = male, 10 mg, males, 10 mg, Day 14
# [16] = male, 35 mg, males, 35 mg, Day 1
# [17] = male, 35 mg, males, 35 mg, Day 14
# [18] = male, 75 mg/kg/day, males, 75 mg, Day 1
# [19] = male, 75 mg/kg/day, males, 75 mg, Day 14
smiles,measurement,setting,value
"C[C@@H]1CN(Cc2ncccn2)C[C@H]1c1cn2c(C3CCOCC3)ncc2c(=O)[nH]1 (single isomer, unassigned) [Compound P3.1]",cardiovascular effects,conscious dogs; oral gavage 75 mg/kg,"induced tachycardia as well as a slight, progressive and delayed decrease in blood pressure and shortened conduction times"
same,"arterial blood pressure, heart rate, body temperature, conduction times, repolarization, QT variability, ST segment",conscious dogs; oral gavage 10 and 25 mg/kg,no effect
same,Mean Plasma/Brain Ratio,[1]; 0.25 h post dose,20.2
same,Concentration Brain,[1]; 0.25 h post dose,111 and 112
same,Concentration Plasma,[1]; 0.25 h post dose,2400 and 2110
same,Plasma/Brain Ratio,[1]; 0.25 h post dose,21.6 and 18.8
same,Mean Plasma/Brain Ratio,[1]; 0.5 h post dose,25.1
same,Concentration Brain,[1]; 0.5 h post dose,82.5 and 50.7
same,Concentration Plasma,[1]; 0.5 h post dose,1790 and 1450
same,Plasma/Brain Ratio,[1]; 0.5 h post dose,21.7 and 28.6
same,Mean Plasma/Brain Ratio,[1]; 1 h post dose,23.1
same,Concentration Brain,[1]; 1 h post dose,28.6 and 44.1
same,Concentration Plasma,[1]; 1 h post dose,647 and 1040
same,Plasma/Brain Ratio,[1]; 1 h post dose,22.6 and 23.6
same,Mean Plasma/Brain Ratio,[1]; 2 h post dose,33.1
same,Concentration Brain,[1]; 2 h post dose,8.88 and 5.34
same,Concentration Plasma,[1]; 2 h post dose,245 and 206
same,Plasma/Brain Ratio,[1]; 2 h post dose,27.6 and 38.6
same,Concentration Plasma,[1]; 4 h post dose,59.8 and 107
same,brain concentration at 4 hours postdose,"[1]; IV dosing, 4 hours postdose",no longer detectable in the brain
same,fraction unbound,[2],0.771
same,induction of CYP1A2,CYP1A2,no potential for induction
same,metabolic stability,"[3]; mouse, rat, dog, monkey, and human liver microsomes",highly stable
same,intrinsic clearance in liver microsomes,[3]; presence or absence of NADPH,minimal intrinsic clearance
same,NOAEL at 14 days,in vivo; female,50 mg/kg/day and 50 mg/kg
same,NOAEL at 14 days,in vivo; male,200 mg/kg/day and 200 mg/kg
same,AUC(0-t),"in vivo; 400 mg/kg/day, plasma exposure (AUC0-24)",> 354000 ng·h/mL
same,exposure relative to anticipated efficacious dose,rat,> 10 fold
same,exposure vs dose,rat,increased proportionally with dose
same,findings at highest dose,rat; 400 mg/kg/day,"reductions in body weight, weight gain, and food intake, and premature deaths"
same,NOAEL at 14 days,[4]; read-out: no-observed-adverse-effect level (NOAEL),35 mg/kg/day
same,NOAEL at 14 days,[4]; read-out: no-observed-adverse-effect-level (NOAEL),35 mg/kg
same,Cmax,[4]; [8],1970 ng/mL
same,AUC(0-t),[4]; [8],24800 ng·h/mL
same,Cmax,[4]; [9],3780 ng/mL
same,AUC(0-t),[4]; [9],25400 ng·h/mL
same,Cmax,[4]; [10],5180 ng/mL
same,AUC(0-t),[4]; [10],66700 ng·h/mL
same,Cmax,[4]; [11],10000 ng/mL
same,AUC(0-t),[4]; [11],87900 ng·h/mL
same,Cmax,[4]; [12],13200 ng/mL
same,AUC(0-t),[4]; [12],152000 ng·h/mL
same,Cmax,[4]; [13],22100 ng/mL
same,AUC(0-t),[4]; [13],224000 ng·h/mL
same,Cmax,[4]; [14],2730 ng/mL
same,AUC(0-t),[4]; [14],29700 ng·h/mL
same,Cmax,[4]; [15],3120 ng/mL
same,AUC(0-t),[4]; [15],24100 ng·h/mL
same,Cmax,[4]; [16],11200 ng/mL
same,AUC(0-t),[4]; [16],114000 ng·h/mL
same,Cmax,[4]; [17],13100 ng/mL
same,AUC(0-t),[4]; [17],98600 ng·h/mL
same,Cmax,[4]; [18],11000 ng/mL
same,AUC(0-t),[4]; [18],137000 ng·h/mL
same,Cmax,[4]; [19],18300 ng/mL
same,AUC(0-t),[4]; [19],193000 ng·h/mL
same,deaths,"dog; dog, 10, 35, or 75 mg/kg/day, 14 days",No deaths were observed at any dose
same,findings,"dog; dog, 35 or 75 mg/kg/day, oral, 14 days","emesis, liquid/loose feces, reduced food intake, and losses in body weight in some individuals"
same,mean exposures vs dose,"dog; dog, Days 1 and 14",increased with dose in a broadly proportionate manner
same,"genotoxicity, bacterial reverse mutation assay",[5],negative
same,platelet binding,"[6]; Compound P3.1 2 or 3 hours, HU 3 hours",did not impact platelet binding
same,PMN adhesion to endothelial cells,[6]; blood incubated 2 or 3 hours,reduced
same,RBC adhesion to endothelial cells,[6]; blood incubated 2 or 3 hours,reduced
same,amount of HbF within cells (mean MFI),[7],"10,840"
same,mean MFI of HbF relative to controls,[7],145%
same,percentage of HbF positive CD36+ cells (mean),[7]; 5 SCD subjects,24.6%
